The data set is described as follows: Solubility in water. Conditions: compared with TOTAPOL.

This note sets out measurements from patent publication US9035054B2, “Dinitroxide-type biradical compounds optimized for dynamic nuclear polarization (DNP)” (Universite D'Aix-Marseille, priority 2009, dated 2015).

As for bis-TEMPO-bis-Ketal [bTbK], the solubility in water result is “less good solubility in water”.
